Measured values taken from publication PMC8279409, “Novel Mixed NOP/Opioid Receptor Peptide Agonists” (Journal of Medicinal Chemistry, 2021).
Like-named read-outs stand apart in the source and are kept apart here. Where a SMILES comes first, the peptide text is derived from it. Where no end group is shown, it is not given here. [ ]: non-standard residue; d: D form. Phe(4-NO2) = N[C@@H](Cc1ccc([N+](=O)[O-])cc1)C(=O)O; 1Nal = N[C@@H](Cc1cccc2ccccc12)C(=O)O; Dmt = Cc1cc(O)cc(C)c1C[C@H](N)C(=O)O; Nva = CCC[C@H](N)C(=O)O

Key:
human NOP receptor = target: T1, human NOP receptor (Homo sapiens, UniProt P41146); assay: Calcium mobilization, NOP receptor; format: cell-based; conditions: for NOP pEC50 (CL95%): CHO cells coexpressing human NOP and Gαqi5, Fluo-4 AM, 37 °C, mean of at least three experiments in duplicate, CL95% in brackets; for NOP/mu CR (concentration ratio): calcium mobilization, NOP versus mu; for Emax: mean ± SEM of at least three experiments in duplicate, SEM
T1 construct: expressed in transfected cells; host or cells: CHO cells stably coexpressing the receptor and chimeric Gαqi5
T1 sequence (P41146 whole entry): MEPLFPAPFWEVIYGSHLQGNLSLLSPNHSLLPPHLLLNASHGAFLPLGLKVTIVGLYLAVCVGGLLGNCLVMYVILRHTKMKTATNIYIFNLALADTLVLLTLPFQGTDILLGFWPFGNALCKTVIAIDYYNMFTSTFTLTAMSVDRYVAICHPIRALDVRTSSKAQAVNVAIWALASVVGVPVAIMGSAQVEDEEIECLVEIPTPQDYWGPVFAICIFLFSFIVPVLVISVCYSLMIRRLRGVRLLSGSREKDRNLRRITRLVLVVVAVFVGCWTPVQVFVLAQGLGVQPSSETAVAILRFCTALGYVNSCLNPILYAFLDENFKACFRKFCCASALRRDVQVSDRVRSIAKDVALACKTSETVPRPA
Description: CHO cells stably coexpressing the human NOP or kappa or the mu receptor and the C-terminally modified Gαqi5 and CHO cells coexpressing the delta receptor and the GαqG66Di5 protein were generated and cultured as described previously.[45],[46] Cells were maintained in Dulbecco’s modified Eagle’s medium/nutrient mixture F-12 (DEMEM/F-12) supplemented with 10% FBS, 100 U/mL penicillin and 100 μg/mL streptomycin, 100 μg/mL hygromicin B, and 200 μg/mL G418 and cultured at 37 °C in 5% CO2 humidified air. Cells were seeded at a density of 50,000 cells/well into 96-well black, clear-bottom plates. The following day, the cells were incubated with Hanks’ balanced salt solution (HBSS) supplemented with 2.5 mM probenecid, 3 μM of the calcium-sensitive fluorescent dye Fluo-4 AM, and 0.01% pluronic acid for 30 min at 37 °C. After that time, the loading solution was aspirated and 100 μL/well of HBSS supplemented with 20 mM HEPES, 2.5 mM probenecid, and 500 μM brilliant black was added. Serial dilutions were carried out in HBSS/HEPES (20 mM) buffer (containing 0.02% BSA fraction V). After placing both plates (cell culture and master plate) into the fluorometric imaging plate reader FlexStation II (Molecular Devices, Sunnyvale, CA), fluorescence changes were measured. On-line additions were carried out in a volume of 50 μL/well. To facilitate drug diffusion into the wells, the present studies were performed at 37 °C. Maximum change in fluorescence, expressed as percent over the baseline fluorescence, was used to determine agonist response.
The pharmacological terminology adopted in this paper is consistent with IUPHAR recommendations.[59] All data are expressed as the mean ± standard error of the mean (SEM) of at least three experiments performed in duplicate. […] Concentration-response curves to agonists were fitted to the classical four-parameter logistic nonlinear regression model:
Effect = Baseline + (Emax – Baseline)/(1 + 10^(LogEC50 – Log[compound]) × Hillslope). Curve fitting was performed using PRISM 6.0 (GraphPad Software Inc., San Diego).

human mu receptor = target: T2, human mu receptor (Homo sapiens, UniProt P35372); assay: Calcium mobilization, mu opioid receptor; format: cell-based; conditions: for mu pEC50 (CL95%): CHO cells coexpressing human mu receptor and Gαqi5, Fluo-4 AM, 37 °C, mean of at least three experiments in duplicate, CL95% in brackets; for pEC50_mu: molecular formula strings CSV, repeats calcium mobilization values of Tables 1-3; for activation at 10 µM: read-out: mu effect at 10 μM (crc incomplete), Table 2 series, mean ± SEM; for activation at 10 µM / Emax / mu Emax ± S.E.M.: percent over the baseline fluorescence; for activation at 10 µM / Emax: SEM; for Emax / mu Emax ± S.E.M.: mean ± SEM of at least three experiments in duplicate
T2 construct: expressed in transfected cells; host or cells: CHO cells stably coexpressing the receptor and chimeric Gαqi5
T2 sequence (P35372 whole entry): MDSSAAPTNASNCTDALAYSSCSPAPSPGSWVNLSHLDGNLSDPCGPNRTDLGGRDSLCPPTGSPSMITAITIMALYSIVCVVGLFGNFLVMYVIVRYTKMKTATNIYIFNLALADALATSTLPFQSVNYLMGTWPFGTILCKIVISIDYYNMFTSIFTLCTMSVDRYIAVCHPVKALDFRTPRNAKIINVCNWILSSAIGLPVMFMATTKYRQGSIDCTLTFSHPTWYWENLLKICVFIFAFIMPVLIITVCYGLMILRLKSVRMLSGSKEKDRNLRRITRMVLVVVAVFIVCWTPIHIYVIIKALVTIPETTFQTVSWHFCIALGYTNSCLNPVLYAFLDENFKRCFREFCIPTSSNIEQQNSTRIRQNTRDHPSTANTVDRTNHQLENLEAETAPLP

[1] = read-out: NOP Emax ± S.E.M., Table 2 series, percent over the baseline fluorescence
[2] = read-out: mu Emax ± S.E.M., Table 2 series

YGGFHGARKSARK-NH2 [Compound 16, [Tyr^1,His^5]N/OFQ(1-13)-NH2]
NOP pEC50 (CL95%) (human NOP receptor; Table 2 series): 7.39 (7.16–7.62) | NOP/mu CR (concentration ratio) (human NOP receptor; Table 2 series): 0.05 | Emax (human NOP receptor; [1]): 249 ± 23% | mu pEC50 (CL95%) (human mu receptor; Table 2 series): crc incomplete; 10 μM: 230 ± 37 | pEC50_mu (human mu receptor): crc incomplete | activation at 10 µM (human mu receptor): 230 ± 37%

Cc1cc(O)cc(C)c1C[C@H](NC(=O)[C@H](Cc1ccccc1)NC(=O)CNC(=O)CNC(=O)[C@@H](N)Cc1ccc(O)cc1)C(=O)NCC(=O)N[C@@H](C)C(=O)N[C@@H](CCCNC(=N)N)C(=O)N[C@@H](CCCCN)C(=O)N[C@@H](CO)C(=O)N[C@@H](C)C(=O)N[C@@H](CCCNC(=N)N)C(=O)N[C@@H](CCCCN)C(N)=O [Compound 28, [Tyr^1,Dmt^5]N/OFQ(1-13)-NH2] (H-YGGF[Dmt]GARKSARK-NH2)
Emax (human NOP receptor; [1]): 251 ± 22% | Emax (human mu receptor; [2]): 301 ± 35%

C[C@H](NC(=O)CNC(=O)[C@H](Cc1cccc2ccccc12)NC(=O)[C@H](Cc1ccccc1)NC(=O)CNC(=O)CNC(=O)[C@@H](N)Cc1ccc(O)cc1)C(=O)N[C@@H](CCCNC(=N)N)C(=O)N[C@@H](CCCCN)C(=O)N[C@@H](CO)C(=O)N[C@@H](C)C(=O)N[C@@H](CCCNC(=N)N)C(=O)N[C@@H](CCCCN)C(N)=O [Compound 25, [Tyr^1,1Nal^5]N/OFQ(1-13)-NH2] (H-YGGF[1Nal]GARKSARK-NH2)
NOP pEC50 (CL95%) (human NOP receptor; Table 2 series): 7.17 (6.82–7.52) | NOP/mu CR (concentration ratio) (human NOP receptor; Table 2 series): 0.08 | Emax (human NOP receptor; [1]): 245 ± 16% | mu pEC50 (CL95%) (human mu receptor; Table 2 series): 6.08 (5.67–6.49) | Emax (human mu receptor; [2]): 319 ± 31%

Cc1cc(O)cc(C)c1C[C@H](N)C(=O)NCC(=O)NCC(=O)N[C@@H](Cc1ccccc1)C(=O)N[C@@H](Cc1ccc(O)cc1)C(=O)NCC(=O)N[C@@H](C)C(=O)N[C@@H](CCCNC(=N)N)C(=O)N[C@@H](CCCCN)C(=O)N[C@@H](CO)C(=O)N[C@@H](C)C(=O)N[C@@H](CCCNC(=N)N)C(=O)N[C@@H](CCCCN)C(N)=O [Compound 30, [Dmt^1,Tyr^5]N/OFQ(1-13)-NH2] (H-[Dmt]GGFYGARKSARK-NH2)
Emax (human NOP receptor; read-out: NOP Emax ± S.E.M., Table 3 series, percent over the baseline fluorescence): 304 ± 21% | Emax (human mu receptor; read-out: mu Emax ± S.E.M., Table 3 series): 410 ± 25%

CCC[C@H](NC(=O)[C@H](Cc1ccccc1)NC(=O)CNC(=O)CNC(=O)[C@@H](N)Cc1ccc(O)cc1)C(=O)NCC(=O)N[C@@H](C)C(=O)N[C@@H](CCCNC(=N)N)C(=O)N[C@@H](CCCCN)C(=O)N[C@@H](CO)C(=O)N[C@@H](C)C(=O)N[C@@H](CCCNC(=N)N)C(=O)N[C@@H](CCCCN)C(N)=O [Compound 13, [Tyr^1,Nva^5]N/OFQ(1-13)-NH2] (H-YGGF[Nva]GARKSARK-NH2)
NOP pEC50 (CL95%) (human NOP receptor; Table 1 series, FlexStation II): 8.43 (7.55–9.31) | NOP/mu CR (concentration ratio) (human NOP receptor; Table 1 series): 0.007 | Emax (human NOP receptor; read-out: NOP Emax ± S.E.M., Table 1 series, maximum change in fluorescence as percent over the baseline fluorescence): 358 ± 14% | mu pEC50 (CL95%) (human mu receptor; Table 1 series): 6.25 (5.59–6.91) | Emax (human mu receptor; read-out: mu Emax ± S.E.M, Table 1 series): 313 ± 19%

C[C@H](NC(=O)CNC(=O)[C@H](Cc1ccc([N+](=O)[O-])cc1)NC(=O)[C@H](Cc1ccccc1)NC(=O)CNC(=O)CNC(=O)[C@@H](N)Cc1ccc(O)cc1)C(=O)N[C@@H](CCCNC(=N)N)C(=O)N[C@@H](CCCCN)C(=O)N[C@@H](CO)C(=O)N[C@@H](C)C(=O)N[C@@H](CCCNC(=N)N)C(=O)N[C@@H](CCCCN)C(N)=O [Compound 22, [Tyr^1,(pNO2)Phe^5]N/OFQ(1-13)-NH2] (H-YGGF[Phe(4-NO2)]GARKSARK-NH2)
Emax (human NOP receptor; [1]): 305 ± 22% | mu pEC50 (CL95%) (human mu receptor; Table 2 series): crc incomplete; 10 μM: 192 ± 64 | pEC50_mu (human mu receptor): crc incomplete | activation at 10 µM (human mu receptor): 192 ± 64%

C[C@H](NC(=O)CNC(=O)[C@@H](NC(=O)[C@H](Cc1ccccc1)NC(=O)CNC(=O)CNC(=O)[C@@H](N)Cc1ccccc1)[C@@H](C)O)C(=O)N[C@@H](CCCNC(=N)N)C(=O)N[C@@H](CCCCN)C(=O)N[C@@H](CO)C(=O)N[C@@H](C)C(=O)N[C@@H](CCCNC(=N)N)C(=O)N[C@@H](CCCCN)C(N)=O [Compound 1, N/OFQ(1-13)NH2, reference compound]
mu pEC50 (CL95%) (human mu receptor; Table 1 series): inactive | mu Emax ± S.E.M. (human mu receptor; Table 1 series): inactive | mu pEC50 (CL95%) (human mu receptor; Table 2 series): inactive | mu Emax ± S.E.M. (human mu receptor; Table 2 series): inactive | mu pEC50 (CL95%) (human mu receptor; Table 3 series): inactive | mu Emax ± S.E.M. (human mu receptor; Table 3 series): inactive | pEC50_mu (human mu receptor): inactive
